Results: publication PMC3472544, “Glycosaminoglycan analogs as a novel anti-inflammatory strategy” (Frontiers in Immunology, 2012)

How the values were obtained:
CCL5 = target: T1, CCL5 (Homo sapiens, UniProt P13501); assay: NMR-based CCL5 binding, Kd from 15N-HSQC titration; details: for Kd: determined by protein NMR, pH 3.2, 30°C; for selective binding to CCL5 in the NMR screen: 206 compound library, 200 μM, HSQC chemical shift changes
T1 construct: made in house
T1 sequence (P13501 24-91): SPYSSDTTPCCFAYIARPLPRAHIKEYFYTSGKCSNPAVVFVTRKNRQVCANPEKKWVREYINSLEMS
Experimental: These molecules were charged, and contained multiple acid groups, such as carboxylates and sulfonates. In addition, many of the molecules were aromatic, to provide some hydrophobicity. The library was pooled into sets containing five compounds and these pools mixed at 200 μM, with an equal concentration of CCL5 at 30°C, and a heteronuclear single quantum coherence (HSQC) spectrum recorded immediately. For pools that induced significant change in the protein chemical shifts, a second round of screening was performed in which each of the five compounds was added individually to the protein solution. […] Dissociation constants were obtained by fitting the recorded chemical shift as a function of increasing ligand concentrations with: (1) δobs=δf+LbΔb −f in which δobs is the observed chemical shift at each point of the titration curve, δf is the chemical shift of the free protein and Δb − f is the difference in chemical shift between free and fully complexed protein.

[1] = tested on: citrated plasma from healthy human blood donors; assay: Anti-coagulation assay: Activated Partial Thromboplastin Time (APTT); details: calibrated against heparin standard curve, samples at 1 mg/ml (MHxS 0.1 mg/ml)
Experimental: Activated Partial Thromboplastin Time (APTT) assays were performed by GlycoMar. 10 mg/ml stock solutions of NisS, StachS, and MHxS, were prepared using dH2O and stored at −20°C until use. Samples were tested at 1 mg/ml. All further dilutions were in dH2O. Prior to each assay, a calibration curve of heparin ranging from 0 to 10 IU/ml was prepared using 5th International Standard Heparin. (GlycoMar ID:92, batch 97/578, Expiry 21SEP10). Fresh human blood from healthy human blood donors was collected into S-Monovette Coagulation tubes from Sarstedt. Nine parts of freshly drawn venous blood were collected into one part trisodium citrate (0.106 M). Plasma was obtained by centrifugation at 1500 × g for 10 min. Each of the carbohydrate samples was diluted and tested at 1 mg/ml in the first instance. MHxS was subsequently tested at 0.1 mg/ml to be within the time frame of the standard curve. The APTT assay was run on an ACL 9000 Coagulation Analyzer. The coagulation time of HemosIL Normal Control (cat no. 0020003110) was checked. Samples, standards and controls were mixed 1:10 with citrated plasma in a test tube, loaded into the ACL 9000 carousel and analyzed using the extended APTT run program.

[2] = tested on: paw thickness after SRBC challenge; assay: Delayed-type hypersensitivity (DTH) model, SRBC; assay type: in vivo, BALB/c mice; details: for inhibition of paw swelling: oligosaccharides 10 mg/kg s.c. at −30 min and +8 h, dexamethasone by oral gavage 30 min before challenge, paw thickness at 21 h
Experimental: Female BALB/c mice were immunized with 2 × 10^6 sheep red blood cells (SRBC) by subcutaneous route (s.c.) at the base of the tail. Five days later mice were challenged with an s.c. injection of 2 × 10^6 SRBC into the softpaw of the left hindpaw. The paw thickness was measured 21 h later and the difference calculated based on values obtained before challenge. MHxS, NisS, and StachS were injected s.c. at a dose of 10 mg/kg, 30 min before and 8 h after challenge. Vehicle was 0.02% BSA diluted in PBS. The reference compound, dexamethasone, was diluted in saline and administered by oral gavage 30 min before challenge. Group sizes were 6 for sham and 8 for all other groups.
Figure 5 Inhibition of delayed-type hypersensitivity. Immunization was performed by s.c. administration of SRBC, followed by a challenge in the hindpaw 5 days later. The persulfated oligosaccharides (10 mg/kg) were administered 30 min prior and 8 h after the challenge. Dexamethasone was used as a positive control, and paw thickness was measured 21 h following the challenge. The statistical differences vs. the control group (mice challenged with SRBC and treated with vehicle for the compounds 0.02% BSA diluted in PBS) are shown whenever present and indicated by ^*P <0.05>; ^***P < 0.001. TEXT PRINTED IN THE PICTURE: dexamethasone: 47% *** | MHxS: 39% *** | NisS: 20% * | StachS: 41% ***

CCL5 binding to heparin = target: T2, CCL5 binding to heparin (Homo sapiens, UniProt P13501); assay: Immobilized heparin competition binding assay ([125I]-CCL5 on heparin-Sepharose beads); details: [125I]-CCL5 0.05 nM, 4 h, read-out: IC50 for the inhibition of CCL5 binding to heparin
T2 sequence (P13501 24-91): T1 sequence (P13501 24-91)
Experimental: Competition experiments were performed as described elsewhere (Severin et al., [2010]). Briefly, heparin-Sepharose beads (Sepharose beads or binding buffer as a background control) and increasing amounts of antagonist were added to each well of a 96 well filter plate. [^125I]-CCL5, was added last, to reach a final concentration of 0.05 nM. The plates were incubated on a shaker at room temperature for 4 h. Each experiment was performed in triplicate, and the results are given as the mean of the three assays.

CCR5 [3] = target: T3, CCR5 (Homo sapiens, UniProt P51681); assay: Equilibrium competition receptor binding assay with CCL3 as the ligand, CCR5; details: data not shown
T3 construct: expressed in transfected cells; host or cells: CHO
T3 sequence (P51681 whole entry, species assumed): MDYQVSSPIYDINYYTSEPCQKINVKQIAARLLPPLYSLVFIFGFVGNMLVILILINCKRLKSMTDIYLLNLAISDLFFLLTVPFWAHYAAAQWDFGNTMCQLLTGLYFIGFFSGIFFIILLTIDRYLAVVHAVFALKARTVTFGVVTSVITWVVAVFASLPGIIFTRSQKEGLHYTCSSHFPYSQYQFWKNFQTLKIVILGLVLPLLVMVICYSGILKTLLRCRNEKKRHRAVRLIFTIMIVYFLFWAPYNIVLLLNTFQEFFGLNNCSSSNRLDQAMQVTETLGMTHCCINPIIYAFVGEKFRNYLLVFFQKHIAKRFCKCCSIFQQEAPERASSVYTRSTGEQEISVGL
Experimental: (§1) The assays were carried out on membranes from CHO transfectants expressing CCR1 or CCR5, as described previously (Severin et al., [2010]). Briefly, serial dilutions of the compounds were prepared in binding buffer (50 mM TrisHCl, pH 7.2, containing 1 mM CaCl2, 5 mM MgCl2, and 0.5% BSA). Equal volumes of membrane preparation at 80 μg/ml and scintillation proximity assay (SPA) beads were mixed before adding them to a 96 well filter plate, giving a final membrane concentration in the assay of 20 μg/ml. ^125I labeled chemokines were dissolved in binding buffer at a concentration of 0.4 nM. […] The plates were incubated for 4 h. Radioactivity was counted with a beta counter for 1 min/well and the data analyzed using Graphpad Prism software. The radioligand was stored at −20°C and was used until the cpm of bound chemokine was ≥ 300 cpm.
(§2) A study of the relative affinity of Molecule 1 toward CCL5 and heparin molecules was first evaluated by competition experiments in which CCL5, immobilized on heparin beads, was competed off the beads by increasing concentrations of Molecule 1. […] Since the principal GAG binding motif of CCL5, the BBXB motif on the 40s loop, plays a role in binding to CCR1, we determined the capacity of Molecule 1 to inhibit the binding of the chemokine CCL5 to its receptors CCR1 and CCR5 using equilibrium competition binding with a SPA-based assay.

CCR1 = target: T4, CCR1 (Homo sapiens, UniProt P32246); assay: Equilibrium competition receptor binding assay with CCL3 as the ligand, CCR1; details: data not shown
T4 construct: expressed in transfected cells; host or cells: CHO
T4 sequence (P32246 1-355): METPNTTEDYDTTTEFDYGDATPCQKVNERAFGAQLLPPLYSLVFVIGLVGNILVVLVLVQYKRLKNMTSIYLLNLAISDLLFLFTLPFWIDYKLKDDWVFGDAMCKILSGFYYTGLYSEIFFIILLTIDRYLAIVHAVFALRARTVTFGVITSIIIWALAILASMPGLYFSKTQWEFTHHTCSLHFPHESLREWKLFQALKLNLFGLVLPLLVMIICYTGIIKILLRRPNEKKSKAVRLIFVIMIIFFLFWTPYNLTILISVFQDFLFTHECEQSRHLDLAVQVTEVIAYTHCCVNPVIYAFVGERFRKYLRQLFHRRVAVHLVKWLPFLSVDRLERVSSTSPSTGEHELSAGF
Experimental: as §1, §2

[4] = tested on: CCL5-induced cellular recruitment into the peritoneal cavity; assay: CCL5-induced peritoneal cellular recruitment; assay type: in vivo, mouse; details: CCL5 binders administered 30 min prior to CCL5 (Figure 4A, B)
CCR5 [5] = target: T5, CCR5 (Homo sapiens, UniProt P13501); assay: Equilibrium competition receptor binding assay (SPA), [125I]-CCL5 on CHO/CCR5 membranes; details: SPA-based equilibrium competition binding
T5 construct: expressed in transfected cells; host or cells: CHO
T5 sequence (P13501 24-91): T1 sequence (P13501 24-91)
Experimental: Briefly, serial dilutions of the compounds were prepared in binding buffer (50 mM TrisHCl, pH 7.2, containing 1 mM CaCl2, 5 mM MgCl2, and 0.5% BSA). […] The plates were incubated for 4 h. Radioactivity was counted with a beta counter for 1 min/well and the data analyzed using Graphpad Prism software. The radioligand was stored at −20°C and was used until the cpm of bound chemokine was ≥ 300 cpm.

CCR1 (Homo sapiens) = target: T6, CCR1 (Homo sapiens); assay: Equilibrium competition receptor binding assay (SPA), [125I]-CCL5 on CHO/CCR1 membranes; details: [125I]-CCL5 0.1 nM, CHO/CCR1 membranes, SPA; read-out: IC50 for the inhibition of CCL5 binding to CCR1
T6 construct: expressed in transfected cells; host or cells: CHO
Experimental: The assays were carried out on membranes from CHO transfectants expressing CCR1 or CCR5, as described previously (Severin et al., [2010]). Briefly, serial dilutions of the compounds were prepared in binding buffer (50 mM TrisHCl, pH 7.2, containing 1 mM CaCl2, 5 mM MgCl2, and 0.5% BSA). Equal volumes of membrane preparation at 80 μg/ml and scintillation proximity assay (SPA) beads were mixed before adding them to a 96 well filter plate, giving a final membrane concentration in the assay of 20 μg/ml. ^125I labeled chemokines were dissolved in binding buffer at a concentration of 0.4 nM. The assay was started by the addition of 25 μL [^125I]-CCL5 to give a concentration of 0.1 nM, in a final assay volume of 100 μL. The plates were incubated for 4 h. Radioactivity was counted with a beta counter for 1 min/well and the data analyzed using Graphpad Prism software. The radioligand was stored at −20°C and was used until the cpm of bound chemokine was ≥ 300 cpm.

[6] = tested on: leukocyte recruitment into the synovial (knee) cavity; assay: Antigen-induced arthritis (AIA) model, mBSA; assay type: in vivo, mice; details: 50 μg s.c. immediately after mBSA; cells counted at 24 h
Experimental: Induction of disease was performed by injection of 10 μg methylated bovine serum albumin (mBSA) as a 10 μL injection into the synovial cavity. Test compounds, at a total dose of 50 μg were injected in a total volume of 200 μL subcutaneously immediately after mBSA administration. Group sizes were 4–6 animals. Total leukocytes (A), neutrophils (B), and mononuclear cells (C) in the synovial cavity were enumerated 24 h after mBSA injection (Sachs et al., [2011]).
Figure 6 Inhibition of antigen induced arthritis. An injection of mBSA into the synovial cavity was used to induce disease. 50 μg of the inhibitors were administered s.c. immediately after the mBSA injection, and the cells in the synovial cavity were enumerated 24 h later. (A) Total cells; (B) […]; (C) mononuclear cells. ^*P < 0.05.

## Nc1cc(C(=O)O)c(O)c(S(=O)(=O)O)c1 [Molecule 7]
CCL5
  Kd: 35 µM

## O=C(O)c1cc(S(=O)(=O)Nc2cc(C(=O)O)c(O)c(S(=O)(=O)O)c2)ccc1O [Molecule 14]
CCL5
  Kd: < 1 µM

## Nc1ccc(O)c(S(=O)(=O)O)c1 [Molecule 6]
CCL5
  Kd: 500 µM

## O=C(O)c1cc(S(=O)(=O)O)c(O)cc1O [Molecule 11]
CCL5
  Kd: < 10 µM

## O=S(=O)(O)c1ccccc1O [Molecule 13]
CCL5
  Kd: 50 µM

## persulfated Stach [StachS]
[1]
  Anticoagulant activity (heparin-equivalent): 6.90 ± 2.69 IU/mg
[2]; 10 mg/kg s.c. at −30 min and +8 h
  reduction of paw thickness compared with dexamethasone: comparable effect
[2]
  inhibition of paw swelling: 41%
CCL5 binding to heparin
  IC50: 18.6 ± 4.34 µM

## CC(=O)Nc1cc(C(=O)O)c(O)c(S(=O)(=O)O)c1 [Molecule 8]
CCL5
  selective binding to CCL5 in the NMR screen: confirmed to be selectively binding to CCL5
  Kd: 20 µM

## O=C(O)c1c(O)c(S(=O)(=O)O)cc(S(=O)(=O)O)c1O [Molecule 12]
CCL5
  Kd: 1 to 5 µM

## O=C(O)c1ccccc1O [Molecule 4]
CCL5
  Kd: 350 µM

## O=C(O)c1cc(S(=O)(=O)O)ccc1O [Molecule 1]
CCR5 [3]
  competition of CCL3 binding to CCR5: no competition
CCR1
  competition of CCL3 binding to CCR1: no competition
[4]
  cell recruitment to the peritoneum: inhibited cell recruitment to the peritoneum in a dose dependent manner
CCR5 [5]
  effect on CCL5 binding to CCR5: no effect
CCR1 (Homo sapiens)
  IC50: 6.7 µM
CCL5 binding to heparin
  IC50: 320 µM
CCL5
  selective binding to CCL5 in the NMR screen: confirmed to be selectively binding to CCL5
  Kd: 20 µM

## C[C@@H]1C[C@H]2[C@@H]3CCC4=CC(=O)C=C[C@]4(C)[C@@]3(F)[C@@H](O)C[C@]2(C)[C@@]1(O)C(=O)CO [dexamethasone, reference compound]
[2]
  inhibition of paw swelling: 47%

## O=C(O)c1c(O)ccc(S(=O)(=O)O)c1O [Molecule 10]
CCL5
  selective binding to CCL5 in the NMR screen: confirmed to be selectively binding to CCL5
  Kd: 18 µM

## CC(=O)Nc1ccc(S(=O)(=O)Nc2cc(C(=O)O)c(O)c(S(=O)(=O)O)c2)cc1 [Molecule 16]
CCL5
  Kd: 40 µM

## O=C(O)c1cc(NS(=O)(=O)c2ccc([N+](=O)[O-])cc2)cc(S(=O)(=O)O)c1O [Molecule 9]
CCL5
  Kd: 300 µM

## O=S(=O)(O)c1cc(O)ccc1O [Molecule 5]
CCL5
  Kd: > 500 µM

## persulfated Nis [NisS]
[1]
  Anticoagulant activity (heparin-equivalent): 6.87 ± 3.22 IU/mg
[2]
  inhibition of paw swelling: 20%
[6]
  mononuclear cell recruitment into the knee cavity: statistically significant reduction
  neutrophil recruitment into the knee cavity: statistically significant reduction
CCL5 binding to heparin
  IC50: 5.89 ± 0.04 µM
